According to US20240010726A1, “LFA-1 SIGNALLING MEDIATOR FOR USE IN CANCER THERAPY” (Universität Basel, priority 2020, published 2024):

How the values were obtained:
PHA T cell blasts = test: CD69 expression of PHA T cell blasts at increasing plate-bound anti-CD3 mAb; assay type: cell-based, human; conditions: augmenting concentrations of plate-bound anti-CD3 mAb; ±Mg^2+
Method: FIG. 4: Magnesium regulates LFA-1 mediated T cell activation and cytotoxicity within physiologic range • (a) Metabolic flux analysis of human EM CD8 T cells upon supra-physiologic activation with anti-CD3 and anti-CD28 Ab, and additional injection of secondary, cross-linking anti-CD3/28 Ab, in medium containing 1.2 mM Mg^2+, 0 mM Mg^2+, or medium which was reconstituted to 1.2 mM Mg^2+ immediately prior to activation (0→1.2 mM Mg^2+). Pooled results from n=6 healthy donors from 3 independent experiments. (b) CD69 expression of PHA T cell blasts upon activation with indicated concentrations of plate-bound anti-CD3 mAb in ±Mg^2+ containing medium. (c) Caspase-3 activity in EL4 target cells after co-culture for 4 hours with murine WT and LFA-1^−/− CTLs in medium containing 1.2 mM Mg^2+ or 0 mM Mg^2+, in presence of PHA at the indicated concentrations. The effector to target cell ratio was 3:1. Pooled results, n=3-4, from 2 independent experiments. (d) Cytotoxicity assay using WT and LFA-1^−/− OT1 CTLs, co-cultured for 4 hours in medium containing 1.2 mM Mg^2+ or 0 mM Mg^2+ with luciferase-expressing EL4 target cells (pulsed with altered OVA peptides at 10^−6 M). Cytotoxicity was quantified after adding luciferin to medium and measuring luminescent signal intensity. […] Cytotoxicity was quantified after adding luciferin to medium and measuring luminescent signal intensity. […]

[1] = tested on: murine WT and LFA-1^−/− CTLs; test: Glycolytic switch of murine WT and LFA-1−/− CTLs; assay type: cell-based; conditions: anti-CD3/28 Ab; 0 mM vs 1.2 mM Mg^2+
Method: FIG. 3: Magnesium regulates LFA-1 mediated T cell activation and cytotoxicity as well BiTE- and CAR T-cell functionality. (a) Glycolytic switch of murine WT and LFA-1^-/- CTLs upon injection of anti-CD3/28 Ab in medium containing 1.2 mM Mg^2+ and 0 mM Mg^2+, presented as quantification of summarized data with n=4 mice. (b) Calcium flux in WT and LFA-1^-/- Jurkat T cells stimulated with anti-CD3 Ab in 1.2 mM and 0 mM Mg^2+ medium, respectively. Cells were loaded with Fluo4, and signal intensity as recorded by plate reader, was normalized to unstimulated baseline values. […] Quantified results of n=3 mice with 3 technical replicates each. […] The effector to target cell ratio was 3:1. Results are quantified of n=3 mice with 3 technical replicates each. (e) Representative CD11a (LFA-1) surface expression on human naïve and EM CD8 T cells, PHA T cell blasts and REP T cells, assessed by flow cytometry. […] The effector to target cell ratio was 1:1. Data is presented as quantified results of n=5 healthy donors (f, g, h), n=3 healthy donors with 2 technical replicates each or n=1 healthy donor with 4 technical replicates (j). […] Data is presented as quantified results of n=1 healthy donor with 4 technical replicates. […] (p) Abundance of IFNγ in cell culture supernatants corresponding to the conditions depicted in (o) at 24 hours was determined by ELISA (n=8, 3 independent experiments). […]

[2] = tested on: luciferase-expressing EL4 target cells; test: Cytotoxicity assay of WT and LFA-1−/− OT1 CTLs with luciferase-expressing EL4 target cells; assay type: cell-based, murine; conditions: EL4 pulsed with altered OVA peptides (G4, H7, R7) at 10^−6 M; 4 h; E:T 3:1; 1.2 mM or 0 mM Mg^2+
Method: FIG. 4: Magnesium regulates LFA-1 mediated T cell activation and cytotoxicity within physiologic range • (a) Metabolic flux analysis of human EM CD8 T cells upon supra-physiologic activation with anti-CD3 and anti-CD28 Ab, and additional injection of secondary, cross-linking anti-CD3/28 Ab, in medium containing 1.2 mM Mg^2+, 0 mM Mg^2+, or medium which was reconstituted to 1.2 mM Mg^2+ immediately prior to activation (0→1.2 mM Mg^2+). Pooled results from n=6 healthy donors from 3 independent experiments. (b) CD69 expression of PHA T cell blasts upon activation with indicated concentrations of plate-bound anti-CD3 mAb in ±Mg^2+ containing medium. […] Cytotoxicity was quantified after adding luciferin to medium and measuring luminescent signal intensity. […] Cytotoxicity was quantified after adding luciferin to medium and measuring luminescent signal intensity. […]
OT-I derived CTLs were stimulated with OVA257-264 peptide ([…], Eurogentec) or the altered peptide ligands R7 ([…], Eurogentec), H7 ([…], Eurogentec) or G4 ([…], Eurogentec) at 10 μM for 4 h. […] Cytotoxicity was either evaluated with fluorogenic caspase-3 substrate (as described above) or luciferase-expressing EL4 target cells. Cytotoxicity was quantified after adding luciferin at 0.15 mg ml^−1 (PerkinElmer) to medium and measuring luminescent signal intensity by plate reader (Synergy H1, BioTek).

[Mg+2] [Mg^2+, Magnesium]
CD69 expression of PHA T cell blasts (PHA T cell blasts): less pronounced dependence
Glycolytic switch of LFA-1^−/− CTLs [1]: independent from extracellular Mg^2+ concentrations
Glycolytic switch of WT CTLs [1]: reduced glycolytic switching
Specific target cell lysis by OT1 CTLs [2]: confirmed across a spectrum of TCR affinities
